Source: patent publication US7714140B2, “1,2 Benzoisothiazole derivative, and agricultural or horticultural plant disease- controlling agent” (Kumiai Chemical Industry, Co. Ltd., priority 2006, dated 2010)

Key:
[1] = tested on: Pyricularia oryzae; assay type: in vivo; settings: paddy rice (Aichi Asahi), root treatment with wettable powder, active ingredient 30 g per 10 ares; inoculated 26 days after treatment; lesions counted 8 days after inoculation
[2] = tested on: Colletotrichum orbiculare; assay: Test for preventive effect for cucumber anthracnose; settings: cucumber (Sagamihanjiro), soil drench 10 ml, inoculated 7 days later, lesions counted 7 days after
Protocol: Four cucumber seeds (variety: Sagamihanjiro) were sowed in a plastic cup of 5.5 cm in diameter, at a depth of 2 cm, and were grown in a greenhouse for 7 days. […] 10 ml of the dilution was poured into the soil at the root of young cucumber seedlings having cotyledons. 7 days later, a conidia suspension (10^5 to 10^6/ml) of Colletotrichum orbiculare which had been cultured in a PDA plate medium, was uniformly inoculated to the cucumber plant by hand spraying. The cup was allowed to stand in a moist chamber of 25° C. for 24 hours. Then, the cup was allowed to stand on a basin in a glass greenhouse and, 7 day later, the number of lesions of all cotyledons in pot was examined. A protective value was calculated from the expression 1 and evaluated according to the standard of Table 2.
Using a comparative compound shown below, a wettable powder was prepared according to Example 5. A control number thereof was calculated in the same manner as in the above Test Example.

[3] = concentration of active ingredient 1 ppm
[4] = concentration of active ingredient 10 ppm

SMILES	Evaluation (protective value) [1]	Evaluation (protective value) [2, 3]	Evaluation (protective value) [2, 4]	melting point [°C]
O=S1(=O)N=C(OCc2ccncc2)c2ccccc21 [Comparative compound 1, reference compound]	C (protective value: less than 80.0% to 50.0% or more)	D (protective value: less than 50.0%)	B (protective value: less than 90.0% to 80.0% or more)	
O=S1(=O)N=C(OCc2snc(Cl)c2Cl)c2ccccc21 [Compound No. 1, 3-(3,4-dichloroisothiazol-5-ylmethoxy)-1,2-benzoisothiazole 1,1-dioxide]	B (protective value: less than 90.0% to 80.0% or more)	A (protective value: 100% to 90.0% or more)	A (protective value: 100% to 90.0% or more)	
C=CCOC1=NS(=O)(=O)c2ccccc21 [Probenazole, reference compound]	C (protective value: less than 80.0% to 50.0% or more)			
Cc1cc(COC2=NS(=O)(=O)c3ccccc32)sn1 [compound 5, 3-(3-methylisothiazol-5-ylmethoxy)-1,2-benzoisothiazole 1,1-dioxide]	B (protective value: less than 90.0% to 80.0% or more)	D (protective value: less than 50.0%)	A (protective value: 100% to 90.0% or more)	202 to 204
